In publication PMC12365674, “Diverse metabolites with anti-psoriasis potential from different fermentations of the fungicolous fungus Xylarialongipes HFG1018” (IMA Fungus, 2025):
Read-outs that look alike come from different tables or passages of the source.

Columns and labels:
[1] = system: HaCaT cells; assay: Antiproliferative activity against HaCaT cells (CCK-8); assay type: cell-based; conditions: read-out: IC50 against the proliferation of HaCaT cells
Description: (§1) As previously described, the immunosuppressive activity, lymphocyte viability, and antiproliferative activity against HaCaT cells were evaluated using the CCK-8 method ([Zhao et al. 2023], [2024]).
(§2) In the immunosuppressive and lymphocyte viability, the primary tested concentration of all compounds was 20.0 μM, and dexamethasone (Dex) (c = 2.0 μM) was used as a positive control. In the antiproliferative activity against HaCaT cells, the primary tested concentration of all compounds was 40 μM, and the positive control was methotrexate (MTX) (c = 40.0 μM). When the inhibition rates are greater than 50%, the IC50 values of active compounds will be further tested and calculated. All experiments were performed in triplicate.

[2] = system: ConA-induced T lymphocytes; assay: Anti-proliferative activity against ConA-induced T lymphocytes (CCK-8); assay type: cell-based; conditions: Mus musculus, T-lymphocyte, c = 40 μM, read-out: Inhibition rate (%) T
[3] = system: LPS-induced B lymphocytes; assay: Anti-proliferative activity against LPS-induced B lymphocytes (CCK-8); assay type: cell-based, mouse; conditions: Mus musculus, Lymphocyte; for inhibition at 20 µM: c = 20 μM, LPS-induced B lymphocytes, read-out: Inhibition rate (%) B; for IC50: induced proliferation of B lymphocytes (LPS), CCK-8, read-out: B cells IC50
Description: as §1, §2

[4] = system: LPS-induced B lymphocytes; assay: as above; assay type: cell-based; conditions: Mus musculus, Lymphocyte, c = 40 μM, read-out: Inhibition rate (%) B
[5] = system: lymphocytes; assay: Lymphocyte viability (CCK-8); assay type: cell-based, mouse; conditions: c = 40 μM
[6] = system: lymphocytes; assay: Lymphocyte viability (CCK-8); assay type: cell-based, mouse; conditions: c = 20 μM
Description: as §1, §2

[7] = system: ConA-induced T lymphocytes; assay: Anti-proliferative activity against ConA-induced T lymphocytes (CCK-8); assay type: cell-based; conditions: Mus musculus, T-lymphocyte; for inhibition at 20 µM: c = 20 μM, ConA-induced T lymphocytes, read-out: Inhibition rate (%) T; for IC50: induced proliferation of T lymphocytes (ConA), CCK-8, read-out: T cells IC50
Description: as §1, §2

[8] = Lymphocyte viability (CCK-8); assay type: cell-based, mouse; conditions: mouse, lymphocytes; lymphocyte viability; CCK-8
Description: as §1, §2

[9] = system: HaCaT cells; assay: EdU proliferation assay, HaCaT cells; assay type: cell-based; conditions: c = 20 μM; compared to the control group
Description: EdU fluorescence labeling for cell proliferation of induced T/B lymphocytes (2 × 10^5 cells/well) and HaCaT cells (1 × 10^4 cells/well) of active compounds 10, 19, 23, 32, 38, and 41 (final concentration 10 or 20 μM) was performed as previously reported ([Biram and Shulman 2020]; [Zhao et al. 2024]). EdU (HF488) (the Click-iT™ EdU Flow Cytometry Assay Kit, APExBIO, USA) was added 24 h (final concentration 50 μM, T and B cells) and 4 h (final concentration 10 μM, HaCaT cells) before harvesting the cells. All procedures were performed according to the manufacturer’s instructions for the click reaction. EdU-positive cells and proliferating phase cells were analyzed with a fluorescence microscope.

## COC(=O)c1ccc(O)c2c1C[C@@H](C)OC2=O [Compound 25, (R)-(−)-5-methoxycarbonylmellein]
[1]; Homo sapiens, HaCaT
  IC50: 35.1 ± 1.9 µM

## COc1cccc2c1C(=O)O[C@@H](C)C2 [Compound 22, (S)-8-methoxy-3-methylisochroman-1-one]
[1]; Homo sapiens, HaCaT
  IC50: 32.3 ± 1.5 µM

## CC(C)CC1NC(=O)C2CCCN2C1=O [Compound 37, cyclo-((S)-Pro-(R)-Leu))]
[1]; Homo sapiens, HaCaT
  IC50: 32 ± 2.2 µM

## C[C@]1(CCO[C@H]2O[C@H](CO)[C@@H](O)[C@H](O)[C@@H]2O)CC[C@H]2C(=CC[C@@H]3[C@]2(C)CCC[C@]3(C)C(=O)O)C1 [Compound 16, 16-α-D-mannopyranosyloxyisopimar-7-en-19-oic acid]
[2]
  inhibition at 40 µM: 20.7 ± 4.3%
[3]
  inhibition at 20 µM: 19.3 ± 4.6%
[4]
  inhibition at 40 µM: 20.5 ± 10.6%
[5]
  Cell validity (%): 96.2 ± 1.1%
[6]
  Cell validity (%): 101.8 ± 6.9%
[7]
  inhibition at 20 µM: 13.1 ± 2.7%

## C[C@]1(CCO[C@H]2O[C@H](CO)[C@@H](O)[C@H](O)[C@H]2O)CC[C@H]2C(=CC[C@@H]3[C@]2(C)CCC[C@]3(C)C(=O)O)C1 [Compound 17, 16-α-D-glucopyranosyloxyisopimar-7-en-19-oic acid]
[2]
  inhibition at 40 µM: 16.3 ± 4.3%
[3]
  inhibition at 20 µM: 11.5 ± 3.1%
[4]
  inhibition at 40 µM: 20.7 ± 6.9%
[5]
  Cell validity (%): 100.0 ± 8.5%
[6]
  Cell validity (%): 94.0 ± 5.6%
[7]
  inhibition at 20 µM: 10.1 ± 4.4%

## 3-methoxy-2-phenethyl-1H-pyrrole-1-carbaldehyde [Compound 35]
[1]
  IC50: 31.5 ± 2.4 µM

## CC(C)C(C)C(OC1OC(CO)C(O)C(O)C1O)C(O)C(C)C1CCC2=C3C=CC4=CC(=O)CCC4(C)C3CCC21C [Compound 41, 22,23-dihydroxy-ergosta-4,6,8(14)-trien-3-one-23-β-D-glucopyranoside]
[3]
  IC50: 16.7 ± 1.9 µM
[8]
  CC50: > 20 µM
[7]
  IC50: 12.1 ± 1.7 µM
[1]; Homo sapiens, HaCaT
  IC50: 27.7 ± 2.5 µM
[9]
  proliferation rates of HaCaT cells measured by EdU: significantly reduced

## CN(Cc1cnc2nc(N)nc(N)c2n1)c1ccc(C(=O)N[C@@H](CCC(=O)O)C(=O)O)cc1 [MTX, methotrexate, reference compound]
[1]; Homo sapiens, HaCaT
  IC50: 26.4 ± 1.4 µM

## c1ccc2c3c([nH]c2c1)CNCC3 [Compound 36, tryptoline]
[3]
  IC50: 16.7 ± 1.8 µM
[8]
  CC50: > 20 µM
[7]
  IC50: > 20 µM

## COc1ccc(O)c2c1C(=O)O[C@@H](C)C2 [Compound 24, (S)-5-hydroxy-8-methoxy-3-methylisochroman-1-one]
[1]; Homo sapiens, HaCaT
  IC50: 32.5 ± 2 µM

## CC[C@@]1(O)CCc2occ(COC)c(=O)c2[C@@H]1O [Compound 13, (5S,6R)-6-ethyl-5,6-dihydroxy-3-(methoxymethyl)-5,6,7,8-tetrahydro-4H-chromen-4-one]
[1]; Homo sapiens, HaCaT
  IC50: 31.1 ± 2.6 µM

## COc1ccc2oc(C)cc(=O)c2c1O [Compound 19, 5-hydroxy-6-methoxy-2-methyl-4H-1-benzopyran-4-one]
[1]; Homo sapiens, HaCaT
  IC50: 29.7 ± 3.3 µM
[9]
  proliferation rates of HaCaT cells measured by EdU: significantly reduced
